The target of data set [1] is thrombin (Homo sapiens, UniProt P00734). Particulars: cited from earlier work.
The conditions of data set [2]: in vivo; cited from earlier work.
Data set [3] concerns pooled citrated human plasma. Briefly: In vitro coagulation assay: thrombin time (TT). The settings on record: final thrombin concentration 5 U/ml; 10 min at 37°C preincubation. It is filed as biochemical. As for the experimental part: (§1) In vitro coagulation assays are performed with pooled citrated human plasma. Substance to be tested or solvent are incubated with plasma for 10 min at 37°C prior to assay. Thrombin time(TT) determinations are performed at a final thrombin concentration of 5 U/ml. Activated partial thromboplastin time (APTT) is determined by incubating 0.1 ml plasma ± substance to be tested with 0.1 ml purified soya bean phospholipid in ellagic acid (Actin-FS) for 4 min at 37°C and followed by the addition of 0.1 ml CaCl2 (50mM). […] With the compound of Example 1, prolongation of TT above 300 sec is achieved at 1.8 µM, elevation of APTT to 2x the control value is achieved at 4.4 µM.

Data set [4] relates to Washed human platelets. Briefly: In vitro platelet aggregation assay induced by thrombin. It is filed as cell-based. The settings on record: aggregation induced by 1 nM human thrombin. As for the experimental part:
Washed human platelets are prepared by a modification of the method of Ardlie ([…]. 1970, 19:7-17). Washed platelet suspension (0.46 ml) is kept at 37°C and stirred at 1100 rpm. After the addition of the substance to be tested or solvent. the platelets are maintained for 2 min before aggregation is induced by 1 nM human thrombin. The extent of platelet aggregation is quantitated by the maximum aggregation amplitude and inhibition of aggregation rate observed in the absence of inhibitor.

For data set [5], the system named is thrombus formation. Briefly: Arterio-venous shunt thrombosis model. Format: in vivo. Particulars: rat. As for the experimental part:
In the arterio-venous shunt thrombosis model in the rat, a modification of the model described by Butler et al. (Blood Coag. Fibrinol., Vol. 3, (1992), page 155), the compounds of the invention prevent thrombus formation in a dose dependent manner. Using the compound of Example 1, thrombus formation is inhibited by 21% at a dose of 0.3 mg/kg i.v. and blocked by a dose of 3 mg/kg i.v.

The test system of data set [6] is pooled citrated human plasma. As to the kind of experiment: In vitro coagulation assay: activated partial thromboplastin time (APTT). Format: biochemical. The settings on record: Actin-FS, 4 min at 37°C, CaCl2. As for the experimental part: as §1

Structures are written as SMILES.

Consider `NC(N)=NCCC[C@H](NC(=O)[C@@H]1CCCN1C(=O)[C@H](N)Cc1ccccc1)C(=O)CCl` [D-Phe-Pro-Arg-CH2Cl], for which the inhibition in vitro in data set [1] was ~10^-8 M.

For the compound `N=C(N)NCCC[C@@H](C=O)NC(=O)[C@@H]1CCCN1C(=O)[C@H](N)Cc1ccccc1` [D-Phe-Pro-Arginal], in data set [2], the LD50 value entry was “quite a low”. Further, in data set [1], the inhibition in vitro is recorded as ~10^-8 M.

The IC50 is the point on the concentration scale where inhibition reaches its midpoint. With `CC(C)(C)OC(=O)NC(C[Si](C)(C)C)C(=O)N1CCCC1C(=O)NC(CCCCO)B1OC2CC3CC(C3(C)C)C2(C)O1` [Example 1, Boc-D-TMSal-Pro-NH-CH[(CH2)4OH]B-OPin], in data set [3], the “concentration at which prolongation of TT above 300 sec is achieved” value was determined as 1.8 µM. The compound further registered an IC50 in data set [4] of 3.8 nM. The “thrombus formation is inhibited” value in data set [5] (dose of 0.3 mg/kg i.v.) is 21%. In addition, the thrombus formation entry in data set [5] (dose of 3 mg/kg i.v.) was “blocked”. Also, in data set [6], the “concentration at which elevation of APTT to 2x the control value is achieved” value is 4.4 µM.

Source of the values: patent EP0688336B1, “PEPTIDE BORONIC ACID DERIVATIVES HAVING PROTEASE INHIBITING ACTIVITY” (Novartis AG, priority 1993, dated 1994).
